Laboratory results as given in patent US20260226493A1, “HERBICIDE RESISTANT PLANTS” (SYNGENTA CROP PROTECTION AG, priority 2023, published 2026).

Tests used:
Test in all cases: BIO3-BIO1 mutant enzyme activity in the presence of herbicide, percentage inhibition (fluorometric DAPA assay)
Format in all cases: biochemical
Details in all cases: read-out: percentage inhibition
[1] = target: T1, Arabidopsis thaliana BIO3-BIO1 (BioDA) mutants (Arabidopsis thaliana, UniProt B0F481, S704P)
T1 construct: with the predicted N-terminal mitochondrial transit peptide removed; 6xHis-tag (N); thrombin cleavage site (N); made in house; host or cells: E. coli BL21 (DE3) bioA
In short: (§1)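 His-tagged Arabidopsis BIO3-BIO1 mutants, expressed in E. coli and purified by IMAC and SEC, were preincubated at 50 nM with herbicide for 10 min at 20 °C in EPPS pH 8.6 with pyridoxal phosphate. Reaction with 100 μM spermidine and 20 μM KAPA ran 75 min at 20 °C; DAPA was derivatised with o-phthalaldehyde and read at ex 410/em 470 nm. […].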

[2] = target: T2, Arabidopsis thaliana BIO3-BIO1 (BioDA) mutants (Arabidopsis thaliana, UniProt B0F481, P421G)
T2 construct: with the predicted N-terminal mitochondrial transit peptide removed; 6xHis-tag (N); thrombin cleavage site (N); made in house; host or cells: E. coli BL21 (DE3) bioA
In short: as §1

[3] = target: T3, Arabidopsis thaliana BIO3-BIO1 (BioDA) mutants (Arabidopsis thaliana, UniProt B0F481, V354E)
T3 construct: with the predicted N-terminal mitochondrial transit peptide removed; 6xHis-tag (N); thrombin cleavage site (N); made in house; host or cells: E. coli BL21 (DE3) bioA
In short: as §1

[4] = target: T4, Arabidopsis thaliana BIO3-BIO1 (BioDA) mutants (Arabidopsis thaliana, UniProt B0F481, C388M)
T4 construct: with the predicted N-terminal mitochondrial transit peptide removed; 6xHis-tag (N); thrombin cleavage site (N); made in house; host or cells: E. coli BL21 (DE3) bioA
In short: as §1

[5] = target: T5, Arabidopsis thaliana BIO3-BIO1 (BioDA) mutants (Arabidopsis thaliana, UniProt B0F481, Y511D)
T5 construct: with the predicted N-terminal mitochondrial transit peptide removed; 6xHis-tag (N); thrombin cleavage site (N); made in house; host or cells: E. coli BL21 (DE3) bioA
In short: as §1

[6] = target: T6, Arabidopsis thaliana BIO3-BIO1 (BioDA) mutants (Arabidopsis thaliana, UniProt B0F481, Q350H)
T6 construct: with the predicted N-terminal mitochondrial transit peptide removed; 6xHis-tag (N); thrombin cleavage site (N); made in house; host or cells: E. coli BL21 (DE3) bioA
In short: as §1

[7] = target: T7, Arabidopsis thaliana BIO3-BIO1 (BioDA) mutants (Arabidopsis thaliana, UniProt B0F481, V354T)
T7 construct: with the predicted N-terminal mitochondrial transit peptide removed; 6xHis-tag (N); thrombin cleavage site (N); made in house; host or cells: E. coli BL21 (DE3) bioA
In short: as §1

[8] = target: T8, Arabidopsis thaliana BIO3-BIO1 (BioDA) mutants (Arabidopsis thaliana, UniProt B0F481, A609I)
T8 construct: with the predicted N-terminal mitochondrial transit peptide removed; 6xHis-tag (N); thrombin cleavage site (N); made in house; host or cells: E. coli BL21 (DE3) bioA
In short: as §1

[9] = target: T9, Arabidopsis thaliana BIO3-BIO1 (BioDA) mutants (Arabidopsis thaliana, UniProt B0F481, Q516C)
T9 construct: with the predicted N-terminal mitochondrial transit peptide removed; 6xHis-tag (N); thrombin cleavage site (N); made in house; host or cells: E. coli BL21 (DE3) bioA
In short: as §1

[10] = target: T10, Arabidopsis thaliana BIO3-BIO1 (BioDA) mutants (Arabidopsis thaliana, UniProt B0F481, S509L)
T10 construct: with the predicted N-terminal mitochondrial transit peptide removed; 6xHis-tag (N); thrombin cleavage site (N); made in house; host or cells: E. coli BL21 (DE3) bioA
In short: as §1

[11] = target: T11, Arabidopsis thaliana BIO3-BIO1 (BioDA) mutants (Arabidopsis thaliana, UniProt B0F481, Q350S)
T11 construct: with the predicted N-terminal mitochondrial transit peptide removed; 6xHis-tag (N); thrombin cleavage site (N); made in house; host or cells: E. coli BL21 (DE3) bioA
In short: as §1

[12] = target: T12, Arabidopsis thaliana BIO3-BIO1 (BioDA) mutants (Arabidopsis thaliana, UniProt B0F481, Y511M)
T12 construct: with the predicted N-terminal mitochondrial transit peptide removed; 6xHis-tag (N); thrombin cleavage site (N); made in house; host or cells: E. coli BL21 (DE3) bioA
In short: as §1

T4 sequence (B0F481 23-833 C388M): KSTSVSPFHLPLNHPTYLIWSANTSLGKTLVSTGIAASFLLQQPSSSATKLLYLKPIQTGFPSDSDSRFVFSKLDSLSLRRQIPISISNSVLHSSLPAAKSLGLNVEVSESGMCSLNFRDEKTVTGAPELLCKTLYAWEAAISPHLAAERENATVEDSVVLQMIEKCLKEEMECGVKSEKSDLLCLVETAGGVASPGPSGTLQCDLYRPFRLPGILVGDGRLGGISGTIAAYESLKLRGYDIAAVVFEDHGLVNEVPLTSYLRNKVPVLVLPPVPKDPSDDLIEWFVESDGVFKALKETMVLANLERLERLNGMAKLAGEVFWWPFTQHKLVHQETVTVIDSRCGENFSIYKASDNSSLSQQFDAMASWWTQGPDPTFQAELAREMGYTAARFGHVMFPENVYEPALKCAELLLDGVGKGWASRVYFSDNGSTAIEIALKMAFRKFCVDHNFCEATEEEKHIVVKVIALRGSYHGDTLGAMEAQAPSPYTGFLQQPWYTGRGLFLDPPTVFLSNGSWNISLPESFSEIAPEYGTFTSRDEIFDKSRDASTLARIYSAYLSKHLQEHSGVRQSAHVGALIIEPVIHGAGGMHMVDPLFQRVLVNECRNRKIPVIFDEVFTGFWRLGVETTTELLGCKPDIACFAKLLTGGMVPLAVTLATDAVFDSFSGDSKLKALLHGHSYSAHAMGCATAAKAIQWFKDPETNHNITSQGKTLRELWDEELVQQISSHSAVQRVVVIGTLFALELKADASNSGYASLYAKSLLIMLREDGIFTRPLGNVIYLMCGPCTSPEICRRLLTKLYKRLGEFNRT
T10 sequence (B0F481 23-833 S509L): as the sequence (B0F481 23-833 C388M) above, with M366C, S487L counted along it
T2 sequence (B0F481 23-833 P421G): as the sequence (B0F481 23-833 C388M) above, with M366C, P399G counted along it
T5 sequence (B0F481 23-833 Y511D): as the sequence (B0F481 23-833 C388M) above, with M366C, Y489D counted along it
T3 sequence (B0F481 23-833 V354E): as the sequence (B0F481 23-833 C388M) above, with V332E, M366C counted along it
T9 sequence (B0F481 23-833 Q516C): as the sequence (B0F481 23-833 C388M) above, with M366C, Q494C counted along it
T1 sequence (B0F481 23-833 S704P): as the sequence (B0F481 23-833 C388M) above, with M366C, S682P counted along it
T8 sequence (B0F481 23-833 A609I): as the sequence (B0F481 23-833 C388M) above, with M366C, A587I counted along it
T12 sequence (B0F481 23-833 Y511M): as the sequence (B0F481 23-833 C388M) above, with M366C, Y489M counted along it
T7 sequence (B0F481 23-833 V354T): as the sequence (B0F481 23-833 C388M) above, with V332T, M366C counted along it
T6 sequence (B0F481 23-833 Q350H): as the sequence (B0F481 23-833 C388M) above, with Q328H, M366C counted along it
T11 sequence (B0F481 23-833 Q350S): as the sequence (B0F481 23-833 C388M) above, with Q328S, M366C counted along it

SMILES	inhibition at 1 µM [1]	inhibition at 1 µM [2]	inhibition at 1 µM [3]	inhibition at 1 µM [4]	inhibition at 1 µM [5]	inhibition at 1 µM [6]	inhibition at 1 µM [7]	inhibition at 1 µM [8]	inhibition at 1 µM [9]	inhibition at 1 µM [10]	inhibition at 1 µM [11]	inhibition at 1 µM [12]	inhibition at 0.2 µM [1]	inhibition at 5 µM [1]	inhibition at 0.2 µM [2]	inhibition at 5 µM [2]	inhibition at 0.2 µM [3]	inhibition at 5 µM [3]	inhibition at 0.2 µM [4]	inhibition at 5 µM [4]	also measured
CCOC(=O)c1nn(-c2ccc3c(c2)OC(F)(F)C(F)(F)O3)c2cccc(C(C)=O)c2c1=O [Compound A, ethyl 5-acetyl-4-oxo-1-(2,2,3,3-tetrafluoro-1,4-benzodioxin-6-yl)cinnoline-3-carboxylate]	56%	30%	25%	31%	10%	23%	61%	24%	83%	6%	42%	59%									
CCn1c(C)c(-c2ccc(F)cc2F)c(=O)c(C(=O)O)c1-c1ccc(Cl)c(Cl)c1 [Compound C, 2-(3,4-dichlorophenyl)-5-(2,4-difluorophenyl)-1-ethyl-6-methyl-4-oxo-pyridine-3-carboxylic acid]	23%	35%	0%	17%	93%	2%	56%	24%	95%	85%	35%	99%	1%	60%	11%	80%	0%	39%	20%	69%	inhibition at 0.2 µM [5]: 68%; inhibition at 5 µM [5]: 99%; inhibition at 0.2 µM [6]: 0%; inhibition at 5 µM [6]: 25%; inhibition at 0.2 µM [7]: 0%; inhibition at 5 µM [7]: 92%; inhibition at 0.2 µM [8]: 7%; inhibition at 5 µM [8]: 42%; inhibition at 0.2 µM [9]: 74%; inhibition at 5 µM [9]: 99%; inhibition at 0.2 µM [10]: 24%; inhibition at 5 µM [10]: 99%; inhibition at 0.2 µM [11]: 2%; inhibition at 5 µM [11]: 66%; inhibition at 0.2 µM [12]: 76%; inhibition at 5 µM [12]: 100%
CCn1c(Cn2ccc(C(F)(F)F)n2)cc(=O)c(C(=O)O)c1-c1ccc(Cl)c(Cl)c1 [Compound L, 2-(3,4-dichlorophenyl)-1-ethyl-4-oxo-6-[[3-(trifluoromethyl)pyrazol-1-yl]methyl]pyridine-3-carboxylic acid]																					inhibition at 0.01 µM [2]: 9%; inhibition at 0.075 µM [2]: 11%; inhibition at 0.5 µM [2]: 85%; inhibition at 0.01 µM [4]: 10%; inhibition at 0.075 µM [4]: 18%; inhibition at 0.5 µM [4]: 34%; inhibition at 0.01 µM [6]: 0%; inhibition at 0.075 µM [6]: 16%; inhibition at 0.5 µM [6]: 38%; inhibition at 0.01 µM [8]: 29%; inhibition at 0.075 µM [8]: 20%; inhibition at 0.5 µM [8]: 0%; inhibition at 0.01 µM [9]: 44%; inhibition at 0.075 µM [9]: 77%; inhibition at 0.5 µM [9]: 95%; inhibition at 0.01 µM [11]: 11%; inhibition at 0.075 µM [11]: 38%; inhibition at 0.5 µM [11]: 59%
CCn1c(-c2ccc(Cl)c(Cl)c2)c(C(=O)O)c(=O)c2cc(F)ccc21 [Compound M, 2-(3,4-dichlorophenyl)-1-ethyl-6-fluoro-4-oxo-quinoline-3-carboxylic acid]	16%	39%	0%	24%	81%	8%	47%	0%	88%	68%	22%	83%	0%	47%	19%	75%	0%	23%	16%	41%	inhibition at 0.2 µM [5]: 38%; inhibition at 5 µM [5]: 96%; inhibition at 0.2 µM [6]: 0%; inhibition at 5 µM [6]: 20%; inhibition at 0.2 µM [7]: 4%; inhibition at 5 µM [7]: 88%; inhibition at 0.2 µM [8]: 2%; inhibition at 5 µM [8]: 78%; inhibition at 0.2 µM [9]: 64%; inhibition at 5 µM [9]: 97%; inhibition at 0.2 µM [10]: 19%; inhibition at 5 µM [10]: 94%; inhibition at 0.2 µM [11]: 4%; inhibition at 5 µM [11]: 44%; inhibition at 0.2 µM [12]: 41%; inhibition at 5 µM [12]: 97%
